Laboratory results as given in publication PMC4018390, “Important Role of CYP2J2 in Protein Kinase Inhibitor Degradation: A Possible Role in Intratumor Drug Disposition and Resistance” (PLoS ONE, 2014).
Read-outs that look alike come from different tables or passages of the source.

Tests used:
CYP1A1 [1] = biological target: T1, CYP1A1 (Homo sapiens, UniProt P04798); experiment: Michaelis-Menten kinetics of TKI metabolite production, cDNA expressed CYP1A1 microsomes; details: for Relative Intrinsic Clearance: Vmax/Km for production of the labelled metabolite, as fold difference of the intrinsic clearance of CYP3A4; for Km: read-out: Affinity Constant, Km, Km of the parent TKI for production of the labelled metabolite, 10 pmoles CYP, TKI 0.5-20 µM, 15 min
T1 sequence (P04798 1-512): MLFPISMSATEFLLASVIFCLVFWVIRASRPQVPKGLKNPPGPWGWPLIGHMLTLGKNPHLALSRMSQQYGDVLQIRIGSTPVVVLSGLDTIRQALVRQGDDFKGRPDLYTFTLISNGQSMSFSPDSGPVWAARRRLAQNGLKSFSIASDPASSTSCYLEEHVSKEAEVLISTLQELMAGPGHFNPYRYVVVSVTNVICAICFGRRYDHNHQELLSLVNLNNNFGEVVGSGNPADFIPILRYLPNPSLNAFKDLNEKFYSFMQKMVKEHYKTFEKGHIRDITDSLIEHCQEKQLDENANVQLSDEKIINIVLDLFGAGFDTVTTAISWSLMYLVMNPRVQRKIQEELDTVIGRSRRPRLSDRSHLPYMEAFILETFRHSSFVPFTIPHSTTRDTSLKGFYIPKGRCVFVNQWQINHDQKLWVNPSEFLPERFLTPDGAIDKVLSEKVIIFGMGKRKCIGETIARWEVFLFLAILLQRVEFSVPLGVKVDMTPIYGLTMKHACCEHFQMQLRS

CYP1B1 [2] = biological target: T2, CYP1B1 (Homo sapiens, UniProt Q16678); experiment: Michaelis-Menten kinetics of TKI metabolite production, cDNA expressed CYP1B1 microsomes; details: for Relative Intrinsic Clearance: Vmax/Km for production of the labelled metabolite, as fold difference of the intrinsic clearance of CYP3A4; for Km: read-out: Affinity Constant, Km, Km of the parent TKI for production of the labelled metabolite, 10 pmoles CYP, TKI 0.5-20 µM, 15 min
T2 sequence (Q16678 1-543): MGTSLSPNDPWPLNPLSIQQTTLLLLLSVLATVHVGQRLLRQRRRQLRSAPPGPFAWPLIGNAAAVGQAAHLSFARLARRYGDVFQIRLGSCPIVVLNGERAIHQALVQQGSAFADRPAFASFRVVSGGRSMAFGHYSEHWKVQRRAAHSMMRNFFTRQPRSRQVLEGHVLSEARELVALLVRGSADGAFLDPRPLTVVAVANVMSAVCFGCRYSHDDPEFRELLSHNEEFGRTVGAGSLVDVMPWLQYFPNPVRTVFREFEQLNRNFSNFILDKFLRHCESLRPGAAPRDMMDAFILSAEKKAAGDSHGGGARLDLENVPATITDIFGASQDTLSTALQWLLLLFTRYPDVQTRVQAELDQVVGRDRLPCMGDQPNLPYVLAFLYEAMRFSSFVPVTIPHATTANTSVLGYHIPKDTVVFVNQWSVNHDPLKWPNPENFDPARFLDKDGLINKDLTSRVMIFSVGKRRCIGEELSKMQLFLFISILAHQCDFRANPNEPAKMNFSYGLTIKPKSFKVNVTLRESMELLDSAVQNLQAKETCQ

CYP1A1 [3] = biological target: T1, CYP1A1; experiment: TKI disappearance in microsomal incubations with cDNA expressed CYP1A1; format: in vitro ADME; set-up: purchased BD Bioscience (Belgium), BD Gentest; host or cells: insect cells
Method: (§1) The disappearance rate was calculated after 10 min (see Table 1 ) taking into account the percent of TKI removed from the incubation (0.25 nmole of TKI and 20 pmoles of CYP in 100 µL) and are expressed in (nmole of degraded TKI/(nanomole of CYP×min)).
(§2) Protein pellets were discarded.

CYP1B1 [4] = biological target: T2, CYP1B1; experiment: TKI disappearance in culture media of HepG2 cells infected with adenovirus expressing CYP1B1; details: up to 72 hours, result in words
CYP2J2 [5] = biological target: T3, CYP2J2 (Homo sapiens, UniProt P51589); experiment: TKI disappearance in culture media of HepG2 cells infected with adenovirus expressing CYP2J2; details: up to 72 hours, result in words
T3 sequence (P51589 1-502): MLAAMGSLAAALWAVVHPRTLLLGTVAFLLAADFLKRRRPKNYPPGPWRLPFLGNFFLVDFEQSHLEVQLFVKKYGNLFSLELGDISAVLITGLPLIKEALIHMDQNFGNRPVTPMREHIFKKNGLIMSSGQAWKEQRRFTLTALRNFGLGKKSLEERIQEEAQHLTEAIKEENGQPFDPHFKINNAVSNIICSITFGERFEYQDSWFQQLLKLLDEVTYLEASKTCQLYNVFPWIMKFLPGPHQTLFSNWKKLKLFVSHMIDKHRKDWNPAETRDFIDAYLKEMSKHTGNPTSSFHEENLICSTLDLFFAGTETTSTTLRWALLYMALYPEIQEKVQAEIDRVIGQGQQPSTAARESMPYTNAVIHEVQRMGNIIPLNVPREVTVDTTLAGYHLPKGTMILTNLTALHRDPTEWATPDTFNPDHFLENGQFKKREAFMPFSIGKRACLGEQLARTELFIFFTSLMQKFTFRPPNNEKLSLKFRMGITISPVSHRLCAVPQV
From the text: as §2

CYP2J2 [6] = biological target: T3, CYP2J2; details: 2.5 µM, pH 7.4; for Disappearance rate in microsomal incubations: 10 min; for TKI levels removed from incubations: 30 min
Method: as §1, §2

CYP3A4 [7] = biological target: T4, CYP3A4 (Homo sapiens, UniProt P08684); details: 2.5 µM, pH 7.4; for Disappearance rate in microsomal incubations: 10 min; for TKI levels removed from incubations: 30 min
Method: as §1, §2

CYP1B1 [8] = biological target: T2, CYP1B1; experiment: TKI disappearance in microsomal incubations with cDNA expressed CYP1B1; format: in vitro ADME; set-up: purchased BD Bioscience (Belgium), BD Gentest; host or cells: insect cells; details: TKI 2.5 µM at T = 0, first 10 minutes, 20 picomoles of CYP
Method: as §1, §2

CYP1A1 [9] = biological target: T1, CYP1A1; details: HepG2 cells infected with CYP1A1 adenovirus; up to 72 hours; result in words
From the text: as §2

CYP2J2 [10] = details: approved drugs identified as CYP2J2 inhibitors; cited from earlier work
CYP2J2 [11] = biological target: T3, CYP2J2; experiment: Michaelis-Menten kinetics of TKI metabolite production, cDNA expressed CYP2J2 microsomes; details: for Km: read-out: Affinity Constant, Km, Km of the parent TKI for production of the labelled metabolite, 10 pmoles CYP, TKI 0.5-20 µM, 15 min
CYP3A4 [12] = biological target: T4, CYP3A4; experiment: Michaelis-Menten kinetics of TKI metabolite production, cDNA expressed CYP3A4 microsomes; details: for Km: read-out: Affinity Constant, Km, CYP3A4, Km of the parent TKI for production of the labelled metabolite, 10 pmoles CYP, TKI 0.5-20 µM, 15 min
CYP1A1 [13] = biological target: T1, CYP1A1; set-up: purchased BD Bioscience (Belgium), BD Gentest; host or cells: insect cells; method as in earlier work; details: compared with CYP1B1 and 3A4, ref 22 (Kamath et al.); cited from earlier work
CYP1B1 [14] = biological target: T2, CYP1B1; set-up: purchased BD Bioscience (Belgium), BD Gentest; host or cells: insect cells; method as in earlier work; details: compared with CYP1A1 and 3A4, ref 22 (Kamath et al.); cited from earlier work
CYP3A4 [15] = biological target: T4, CYP3A4; set-up: purchased BD Bioscience (Belgium), BD Gentest; host or cells: insect cells; method as in earlier work; details: compared with CYP1A1 and 1B1, ref 22 (Kamath et al.); cited from earlier work
CYP1A1 [16] = biological target: T1, CYP1A1; details: read-out: Affinity Constant, Km, Km of the parent TKI (imatinib) for production of the labelled metabolite, values marked (*), previous published study ref 18; cited from earlier work
[17] = CYP1A1, TKI 2.5 µM at T = 0, first 10 minutes, 20 picomoles of CYP

T4 sequence (P08684 whole entry): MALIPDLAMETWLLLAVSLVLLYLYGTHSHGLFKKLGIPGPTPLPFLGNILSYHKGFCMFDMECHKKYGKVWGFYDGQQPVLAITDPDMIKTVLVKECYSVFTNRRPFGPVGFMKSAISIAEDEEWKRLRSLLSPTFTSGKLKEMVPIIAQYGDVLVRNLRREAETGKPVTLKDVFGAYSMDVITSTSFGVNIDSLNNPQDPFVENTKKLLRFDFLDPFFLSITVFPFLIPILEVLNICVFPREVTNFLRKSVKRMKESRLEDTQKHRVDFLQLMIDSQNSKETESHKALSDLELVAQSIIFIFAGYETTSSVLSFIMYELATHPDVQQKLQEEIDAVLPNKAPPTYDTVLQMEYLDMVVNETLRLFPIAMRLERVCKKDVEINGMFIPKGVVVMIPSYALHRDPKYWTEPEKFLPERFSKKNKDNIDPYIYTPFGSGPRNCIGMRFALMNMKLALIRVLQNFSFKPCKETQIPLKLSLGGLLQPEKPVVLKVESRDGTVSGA

CCNCCNC(=O)c1c(C)[nH]c(/C=C2\C(=O)Nc3ccc(F)cc32)c1C [Z-deethyl-sunitinib #2, Z-deethyl-sunitinib]
Relative Intrinsic Clearance (CYP1A1 [1]): 0.2 fold diff.
Km (CYP1A1 [1]): 6.7 µM
Relative Intrinsic Clearance (CYP1B1 [2]): 0.1 fold diff.

Cc1cn(-c2cc(NC(=O)c3ccc(C)c(Nc4nccc(-c5cccnc5)n4)c3)cc(C(F)(F)F)c2)cn1 [Nilotinib, nilotinib]
Disappearance rate in microsomal incubations (CYP1A1 [3]; [17]): 0.2 nmoles of TKI degraded/(min×nmole of CYP)
TKI removal from HepG2 cell culture media (CYP1B1 [4]): very slowly by CYP1B1
TKI removal from HepG2 cell culture media (CYP2J2 [5]): mainly removed by CYP2J2
Disappearance rate in microsomal incubations (CYP2J2 [6]): 0.7 nmoles of TKI degraded/(min×nmole of CYP)
TKI levels removed from incubations (CYP2J2 [6]): more than 60%
Disappearance rate in microsomal incubations (CYP3A4 [7]): 1.2 nmoles of TKI degraded/(min×nmole of CYP)
TKI levels removed from incubations (CYP3A4 [7]): more than 60%
Disappearance rate in microsomal incubations (CYP1B1 [8]): 0.3 nmoles of TKI degraded/(min×nmole of CYP)

CCN(CC)CCNC(=O)c1c(C)[nH]c(/C=C2\C(=O)Nc3ccc(F)cc32)c1C [Sunitinib, sunitinib]
Disappearance rate in microsomal incubations (CYP1A1 [3]): 0.6 nmoles of TKI degraded/(min×nmole of CYP)
TKI removal from HepG2 cell culture media (CYP1A1 [9]): equal rate for CYP1A1 and 2J2
Disappearance rate in microsomal incubations (CYP1B1 [8]): 0.1 nmoles of TKI degraded/(min×nmole of CYP)

C#C[C@]1(O)CC[C@H]2[C@@H]3CCC4=Cc5oncc5C[C@]4(C)[C@H]3CC[C@@]21C [danazol]
CYP2J2 inhibition (CYP2J2 [10]): CYP2J2 inhibitors

Fc1ccc(C(c2ccc(F)cc2)N2CCN(C/C=C/c3ccccc3)CC2)cc1 [flunarizine]
CYP2J2 inhibition (CYP2J2 [10]): CYP2J2 inhibitors

N-oxide-nilotinib [NO-nilotinib #1]
Km (CYP1A1 [1]): 3 µM
Km (CYP2J2 [11]): 0.8 µM
Km (CYP3A4 [12]): 27.6 µM

CCNCCNC(=O)c1c(C)[nH]c(/C=C2\C(=O)Nc3ccc(F)cc32)c1C [E-deethyl-sunitinib #1, E-deethyl-sunitinib]
Relative Intrinsic Clearance (CYP1A1 [1]): 0.1 fold diff.
Km (CYP1A1 [1]): 6.9 µM
Relative Intrinsic Clearance (CYP1B1 [2]): 0.1 fold diff.
Km (CYP1B1 [2]): 2.7 µM

Cc1nc(Nc2ncc(C(=O)Nc3c(C)cccc3Cl)s2)cc(N2CCN(CCO)CC2)n1 [Dasatinib, dasatinib]
Disappearance rate in microsomal incubations (CYP1A1 [3]; [17]): 0.9 nmoles of TKI degraded/(min×nmole of CYP)
TKI removal from HepG2 cell culture media (CYP1B1 [4]): CYP2J2>CYP1A1>CYP1B1
TKI removal from HepG2 cell culture media (CYP2J2 [5]): CYP2J2>CYP1A1>CYP1B1
Degradation in similar microsomal incubations (CYP1A1 [13]): comparable rate of disappearance
Disappearance rate in microsomal incubations (CYP2J2 [6]): 1.1 nmoles of TKI degraded/(min×nmole of CYP)
TKI levels removed from incubations (CYP2J2 [6]): more than 60%
Disappearance rate in microsomal incubations (CYP3A4 [7]): 1.2 nmoles of TKI degraded/(min×nmole of CYP)
TKI levels removed from incubations (CYP3A4 [7]): more than 60%
TKI removal from HepG2 cell culture media (CYP1A1 [9]): CYP2J2>CYP1A1>CYP1B1
Disappearance rate in microsomal incubations (CYP1B1 [8]): 1.0 nmoles of TKI degraded/(min×nmole of CYP)
Degradation in similar microsomal incubations (CYP1B1 [14]): comparable rate of disappearance
Degradation in similar microsomal incubations (CYP3A4 [15]): comparable rate of disappearance

CCCc1nc2c(C)cc(-c3nc4ccccc4n3C)cc2n1Cc1ccc(-c2ccccc2C(=O)O)cc1 [telmisartan]
CYP2J2 inhibition (CYP2J2 [10]): CYP2J2 inhibitors

Cc1nc(Nc2ncc(C(=O)Nc3c(C)cccc3Cl)s2)cc(N2CCNCC2)n1 [dehydroxyethyl-dasatinib]
Relative Intrinsic Clearance (CYP1A1 [1]): 0.5 fold diff.
Km (CYP1A1 [1]): 4.7 µM
Relative Intrinsic Clearance (CYP2J2 [11]; Vmax/Km for production of the labelled metabolite, as fold difference of the intrinsic clearance of CYP3A4): 0.5 fold diff.
Km (CYP2J2 [11]): 3.9 µM
Relative Intrinsic Clearance (CYP1B1 [2]): 1.1 fold diff.
Km (CYP1B1 [2]): 2.2 µM
Relative Intrinsic Clearance (CYP3A4 [12]; CYP3A4 (reference, set to 1.0), Vmax/Km for production of the labelled metabolite): 1.0 fold diff.
Km (CYP3A4 [12]): 71.4 µM

CNC(=O)c1cc(Oc2ccc(NC(=O)Nc3ccc(Cl)c(C(F)(F)F)c3)cc2)ccn1 [Sorafenib, sorafenib]
Disappearance rate in microsomal incubations (CYP1A1 [3]; [17]): 0.4 nmoles of TKI degraded/(min×nmole of CYP)
TKI removal from HepG2 cell culture media (CYP1B1 [4]): very slowly by CYP1B1
Disappearance rate in microsomal incubations (CYP1B1 [8]): 0.0 nmoles of TKI degraded/(min×nmole of CYP)

Cc1ccc(NC(=O)c2ccc(CN3CCNCC3)cc2)cc1Nc1nccc(-c2cccnc2)n1 [N-demethyl-imatinib]
Km (CYP1A1 [16]): 7.6 µM
